Measurements reported in PMC6930524, “A Prospective Repurposing of Dantrolene as a Multitarget Agent for Alzheimer’s Disease” (Molecules, 2019).

What was measured:
[1] = target: T1, carnitine/acylcarnitine carrier (CAC) in intact rat liver mitochondria (Rattus norvegicus, UniProt P97521); experiment: [3H]-carnitine uptake (CAC transport) in intact mitochondria; format: biochemical; conditions: 50 μM, after 120 min, 0.05 mM [3H]-carnitine
T1 construct: The measurement of CAC activity in isolated entire mitochondria has been performed as previously described; from tissue; host or cells: rat liver mitochondria (intact organelles)
T1 sequence (P97521 1-301): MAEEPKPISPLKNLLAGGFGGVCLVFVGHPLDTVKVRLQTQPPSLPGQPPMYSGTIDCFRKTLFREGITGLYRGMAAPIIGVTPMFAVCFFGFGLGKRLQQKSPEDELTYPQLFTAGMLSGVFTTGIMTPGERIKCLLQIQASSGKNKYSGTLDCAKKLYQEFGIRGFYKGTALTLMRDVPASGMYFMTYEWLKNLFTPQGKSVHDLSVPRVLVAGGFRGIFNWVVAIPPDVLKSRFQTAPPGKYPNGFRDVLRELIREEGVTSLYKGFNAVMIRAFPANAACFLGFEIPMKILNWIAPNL
Procedure: The purification of crude rat mitochondria and the measurement of CAC transport activity are described in Materials and Methods. The uptake of carnitine was started by adding 0.05 mM [^3H]-carnitine in the presence or absence of 50 μM DAN (dissolved in 1:1 DMSO/H2O). The transport activity was inhibited at various times by adding cold 1 mM N-ethylmaleimide (NEM) in a buffer containing 150 mM sucrose, 50 mM TRIS-HCl, 50 mM KCl. […] Addition of DAN to intact mitochondria induced an increase of transport function up to 41% after 120 min.
In order to isolate crude mitochondria from rat liver, a standard protocol was performed, involving cell destruction by mechanical stress, isolation by differential centrifugation in order to eliminate various subcellular contaminations, and purification by centrifugation on colloidal silica Percoll 30% gradient. The average purity of the mitochondrial preparation was monitored by measuring the specific activity of alkaline phosphatase (EC 3.1.3.1). The specific activity of alkaline phosphatase, in the mitochondria preparations was measured at 37 °C as substrate consumed per min per mg protein [55]. […] The purified mitochondria (5 mg/100 μL) were incubated for 2 h with 20 mM carnitine, washed three times with a buffer containing 150 mM sucrose, 50 mM TRIS-HCl, 50 mM KCl, and the transport activity was measured. […]

[2] = ABTS radical scavenging assay; format: physicochemical; conditions: compound at 0.2·[ABTS+]
Text: Starting from these evidences, we tested DAN in two in vitro models of radical scavenging activity, i.e., the 1,1-diphenyl-2-picryl-hydrazyl (DPPH) and 2,2′-azinobis-(3-ethylbenzothiazoline-6-sulfonic acid) (ABTS) free radical production. Both generate stable nitrogen radicals showing high absorption in visible spectrum, thus allowing easy and straightforward spectrophotometric measures. […] It can be assumed that the antioxidant activity of DAN is independent from its radical scavenging properties.
Already published protocols for DPPH and […] radical scavenging were used. The scavenging of the radical DPPH^·, or the monocation radical ABTS^·+, were determined by measuring the loss of absorbance at 515 or 755 nm, respectively. Samples were prepared in clear polystyrene flat-bottomed 96-well microplates. […] A preliminary absorbance reading at 755 nm allowed to determine the actual ABTS^·+ concentration (normally 60–70 μM; extinction coefficient ε = 12,000) and set the final concentration of inhibitors to 0.2[ABTS^·+]. 215 μL of ABTS^·+ solution were mixed with 35 μL of stock solution of inhibitors and the decrease in absorbance was monitored. Antioxidant activity was determined from Equation (2) as the percentage of radical production of inhibitor containing samples, compared with control: % radical production = 100 × ABSsample/ABScontrol(2)

human MAO B (hMAO B) = target: T2, human MAO B (hMAO B) (Homo sapiens, UniProt P27338); experiment: biochemical
T2 construct: purchased Sigma-Aldrich Europe (Milan, Italy); host or cells: baculovirus infected insect cells (microsomes)
T2 sequence (P27338 1-520): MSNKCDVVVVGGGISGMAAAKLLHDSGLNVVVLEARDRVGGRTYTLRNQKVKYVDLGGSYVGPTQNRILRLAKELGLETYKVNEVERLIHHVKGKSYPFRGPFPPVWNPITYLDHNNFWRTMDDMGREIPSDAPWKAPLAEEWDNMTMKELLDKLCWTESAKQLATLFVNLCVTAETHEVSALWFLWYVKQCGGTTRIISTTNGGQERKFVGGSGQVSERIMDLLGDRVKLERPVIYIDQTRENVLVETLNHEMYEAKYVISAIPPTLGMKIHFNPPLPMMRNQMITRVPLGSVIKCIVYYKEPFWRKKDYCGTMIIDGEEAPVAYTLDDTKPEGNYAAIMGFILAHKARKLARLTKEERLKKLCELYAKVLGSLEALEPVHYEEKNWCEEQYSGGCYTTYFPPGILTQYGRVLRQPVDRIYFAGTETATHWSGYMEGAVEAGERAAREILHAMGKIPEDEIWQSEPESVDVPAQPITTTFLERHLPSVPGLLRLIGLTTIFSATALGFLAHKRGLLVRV
Text: Routine kynuramine fluorescence [29] and Ellman’s spectrophotometric [30, 31] assays were used for in vitro inhibition of human MAO B (hMAO B) and acetylcholinesterase (hAChE), respectively. Selectivity over the corresponding isoforms hMAO A and butyrylcholinesterase (hBChE) was also verified.
An already published protocol using human recombinant monoamine oxidases A (250 U/mg) and B (59 U/mg; microsomes from baculovirus infected insect cells) [29] was used by applying a 96-well plate technique (instrument Infinite M1000 Pro, Tecan, Cernusco s.N., Italy). Briefly, compounds at a concentration ranging from 30 to 0.01 μM were preincubated 20 min at 37 °C with substrate kynuramine, in phosphate buffer 8.0 made 0.39 osmolar with KCl. After addition of enzyme and further 30 min of incubation, NaOH was added and the fluorescence read at 310/400 excitation/emission wavelength. Experiments were performed in duplicates in black, flat-bottomed polystyrene 96-well microtiter plates (Greiner Bio-One GmbH, Frickenhausen, Germany). […] Inhibition values and kinetics were calculated by means of Prism (GraphPad Prism version 5.00 for Windows, GraphPad Software, San Diego, CA, USA).

[3] = target: T3, human recombinant AChE (hAChE) (Homo sapiens, UniProt P22303); experiment: biochemical; format: biochemical
T3 construct: purchased Sigma-Aldrich Europe (Milan, Italy)
Procedure: An already published method was used to apply the Ellman’s spectrophotometric assay to the 96-well plate technique. […] Experiments were performed in duplicate in transparent, flat-bottomed polystyrene 96-well microtiter plates, and readings made with Tecan Infinite M1000 Pro instrument.

[4] = cited from earlier work

T3 sequence (P22303 32-614): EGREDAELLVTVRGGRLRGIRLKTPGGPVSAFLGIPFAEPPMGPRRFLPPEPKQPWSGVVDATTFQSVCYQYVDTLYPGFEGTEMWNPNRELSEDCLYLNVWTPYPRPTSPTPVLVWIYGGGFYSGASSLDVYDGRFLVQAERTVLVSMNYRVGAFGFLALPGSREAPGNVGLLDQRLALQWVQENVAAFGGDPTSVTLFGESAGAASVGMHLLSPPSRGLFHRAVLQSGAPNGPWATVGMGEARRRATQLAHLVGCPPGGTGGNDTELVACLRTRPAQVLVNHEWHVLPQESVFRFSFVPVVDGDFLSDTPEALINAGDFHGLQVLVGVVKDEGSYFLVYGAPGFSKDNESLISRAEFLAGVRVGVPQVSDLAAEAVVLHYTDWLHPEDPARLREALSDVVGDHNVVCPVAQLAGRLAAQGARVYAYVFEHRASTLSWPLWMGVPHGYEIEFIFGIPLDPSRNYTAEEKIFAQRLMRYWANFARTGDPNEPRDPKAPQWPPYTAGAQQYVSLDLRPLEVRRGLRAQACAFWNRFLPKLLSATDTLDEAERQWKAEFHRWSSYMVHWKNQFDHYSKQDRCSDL

SMILES: O=C1CN(/N=C/c2ccc(-c3ccc([N+](=O)[O-])cc3)o2)C(O)=N1 [Dantrolene]
- increase of CAC transport function in intact mitochondria [1]: 41%
- ABTS radical scavenging activity [2]: no activity
- IC50 (human MAO B (hMAO B)): 2.69 ± 0.44 µM
- hMAO B inhibition mechanism (human MAO B (hMAO B); Michaelis–Menten / Lineweaver–Burk, substrate kynuramine): comp.
- Ki (human MAO B (hMAO B); substrate kynuramine, mean ± SEM): 0.96 ± 0.09 µM
- IC50 [3]: 4.19 ± 0.73 µM
- hAChE inhibition mechanism ([3]; Michaelis–Menten / Lineweaver–Burk, substrate acetylthiocoline): noncomp.
- potency of AChE inhibition relative to galantamine ([3]; fold lower than reference compound galantamine): seven-fold lower
- Ki ([3]; substrate acetylthiocoline, mean ± SEM): 6.3 ± 0.15 µM
- concentration found in the cytosolic compartment in vivo [4]: 10 µM
